Assay results reported in patent US8399682B2, “Substituted (pyrazolylcarbonyl)imidazolidinones and their use” (AiCuris GmbH & Co. KG, priority 2008, dated 2013).
Where two headings read alike, the source gives them in different places.

Experiments:
[1] = system: HIV-1NL4-3 wt; assay: Light assay with wild-type HI reporter virus in MT4 7F2 cells; type: cell-based; details: Human immunodeficiency virus 1, 2% FCS
Description: (§1) For the mixture for a 96-well MTP, 3 million MT4 7F2 cells are pelleted, suspended in 1 ml of RPMI 1640 medium without phenol red (Invitrogen, Karlsruhe, Germany)/10% FCS/10% AIM-V (Invitrogen, Karlsruhe, Germany) and incubated together with a suitable amount of the corresponding HIV-1NL4-3 reporter virus at 37° C. for 2 hours (pellet infection). Unadsorbed viruses are subsequently washed out with PBS, and the infected cells are pelleted again and suspended in 8 ml of RPMI 1640 medium without phenol red/2% or 10% FCS/10% AIM-V. 80 μl thereof are pipetted into each well of a white 96-well MTP with 20 μl of test substance in suitable dilution. To avoid edge effects, the wells on the edge of the MTP are not used for substance dilutions. The second vertical row of the MTP contains only infected cells (virus control) and the eleventh vertical row only uninfected cells (cell control), in each case in RPMI 1640 medium without phenol red/2% or 10% FCS/10% AIM-V. The other wells of the MTP contain the compounds of the invention in various concentrations starting from the third vertical row, from which the test substances are diluted in 3-fold steps up to the tenth vertical row 3^7-fold. The test substances are dissolved in DMSO, whereby the final DMSO concentration in the test mixture eventually is 1%. The test mixtures are incubated at 37° C./5% CO2 for five days and, after the addition of 15 μl of Lu164 substrate (5 mg/ml coelenterazine dissolved in 30 μM glutathione/DMSO, 100 mM NaCl, 1M MES, 100 mM glutathione), evaluated by luminometry. The resulting values are in the region of 1 000 000 RLUs (relative light units) for the virus control and 300 to 400 RLUs for the cell control. The EC50 values of the test substances are determined as the concentration at which the virus replication measured in RLUs is 50% of the untreated infected cells.

[2] = biological target: T1, reverse transcriptase (Human immunodeficiency virus type 1 group M subtype B, UniProt P04585); assay: Biochemical Reverse Transcriptase Assay (Reverse Transcriptase Assay, colorimetric, Roche)
T1 construct: negative control (mixture without reverse transcriptase); purchased Roche Diagnostics GmbH, Mannheim, Germany
Description: The “Reverse Transcriptase Assay, colorimetric” (Roche Diagnostics GmbH, Mannheim, Germany) is used in accordance with the manufacturer's information. The test substances are dissolved in DMSO and are used in the test diluted in 5-fold steps (final DMSO concentration 1%). The resulting values of the photometric evaluation (405/492 nm) are less than 0.1 for the negative control (mixture without reverse transcriptase) and are in the region of 1.5 for the positive control (mixture without test substance). The IC50 values of the test substances are determined as the concentration of the test substance dilution at which the measured optical density is 50% of the positive control.

[3] = system: HIV-1LAI; assay: H9 assay with wild-type HIV-1 (HIV-1LAI supernatant infection, AlamarBlue); type: cell-based; details: Human immunodeficiency virus 1, H9 cells, 10% FCS
Description: For the mixture for a 96-well MTP, 3 million PBLs are pelleted, suspended in 1 ml of RPMI 1640 medium/10% FCS and incubated together with a suitable amount of HIV-1LAI (NIH AIDS Research & Reference Reagent Program, Germantown, USA) at 37° C. for 2 hours (pellet infection). Unadsorbed viruses are subsequently washed out with PBS, and the infected cells are pelleted again and suspended in 18 ml of RPMI 1640 medium/10% FCS/interleukin-2 (40 U/ml). 180 μl thereof are pipetted into each well of a white 96-well MTP with 20 μl of test substance in suitable dilution. Alternatively, after preparation of the substance dilutions in the MTP, the HIV is pipetted in together with the cells and is not washed out again (supernatant infection). In order to avoid edge effects, the wells at the edge of the MTP are not used for substance dilutions. The second vertical row of the MTP contains only infected cells (virus control) and the eleventh vertical row only uninfected cells (cell control), in each case in RPMI 1640 medium/10% FCS/interleukin-2 (40 U/ml). The other wells of the MTP contain the compounds of the invention in various concentrations starting from the third vertical row, from which the test substances are diluted in 3-fold steps up to the tenth vertical row 3^7-fold. The test substances are dissolved in DMSO, whereby the final DMSO concentration in the test mixture eventually is 1%. The test mixtures are incubated at 37° C./5% CO2. After 5 and 7 days, 50 μl of cell-free supernatant are removed from each well to determine the amount of p24 present by means of a p24 ELISA (HIV-1 p24^CA Antigen Capture Assay Kit, NCI-Frederick Cancer Research and Development Center, Frederick, USA). From the resulting values of the photometric evaluation (450/620 nm) the EC50 values of the test substances are determined as the concentration at which the amount of p24 is 50% of the untreated infected cells.
Alternatively, H9 cells (ATCC, Wesel, Germany) are employed instead of PBLs for testing the test substances. H9 cells are incubated in RPMI 1640 medium with 2% or 10% FCS as a HIV-1LAI supernatant infection at 37° C./5% CO2, (20 μl of substance dilution and 80 μl of cells/virus per well) in accordance with the pattern described above for 5 days. Subsequently, 10 μl of AlamarBlue (Invitrogen, Karlsruhe, Germany) are added to each well, and the MTPs are incubated at 37° C. for 3 hours before the fluorimetric evaluation takes place (544/590 nm). The resulting values are about 40 000 for the untreated uninfected cells and about 7000 for the untreated infected cells. In the low concentration range, the EC50 values of the test substances are determined as the concentration at which the fluorescence is 50% of the untreated uninfected cells (in each case subtracting the values of the untreated infected cells). In addition, in the high concentration range, the CC50 values of the test substances are determined as the concentration at which the fluorescence is 50% of the untreated uninfected cells (in each case subtracting the values of the untreated infected cells).

[4] = system: HIV-1NL4-3 K103N-Y181C; assay: Light assay with inhibitor-resistant HI reporter virus in MT4 7F2 cells; type: cell-based; details: Human immunodeficiency virus 1, read-out: EC50 (nM) MT4 7F2 cells HIV-1NL4-3 K103N-Y181C 2% FCS
Description: as §1

Row | Structure (SMILES) | EC50 [1] [nM] | IC50 ([2]; read-out: IC50 (nM) RT Assay) [nM] | EC50 [3] [nM] | EC50 [4] [nM] | IC50 [2] [nM]
1 | O=C1CN(C(=O)c2cc(-c3cc(F)cc(Cl)c3)n(-c3ccc(F)c(Cl)c3)n2)CN1 [Example 1, 1-{[1-(3-Chloro-4-fluorophenyl)-5-(3-chloro-5-fluorophenyl)-1H-pyrazol-3-yl]carbonyl}imidazolidin-4-one] | 0.2 | 38 | 2 | 3 | –
2 | O=C1CN(C(=O)c2cc(-c3cc(F)cc(Cl)c3)n(-c3cccc(Cl)c3)n2)CN1 [Example 2, 1-{[5-(3-Chloro-5-fluorophenyl)-1-(3-chlorophenyl)-1H-pyrazol-3-yl]carbonyl}imidazolidin-4-one] | 0.06 | 34 | 0.2 | 11 | –
3 | O=C1CN(C(=O)c2cc(-c3cc(F)cc(F)c3)n(-c3cccc(Cl)c3)n2)CN1 [Example 3, 1-{[1-(3-Chlorophenyl)-5-(3,5-difluorophenyl)-1H-pyrazol-3-yl]carbonyl}imidazolidin-4-one] | 0.03 | 37 | 0.2 | 7 | –
4 | O=C1CN(C(=O)c2cc(-c3cccc(Cl)c3)n(-c3cccc(Cl)c3)n2)CN1 [Example 4, 1-{[1,5-Bis(3-chlorophenyl)-1H-pyrazol-3-yl]carbonyl}imidazolidin-4-one] | 1 | 75 | 11 | 45 | –
5 | COc1cc(F)cc(-c2cc(C(=O)N3CNC(=O)C3)nn2-c2cccc(Cl)c2)c1 [Example 21, 1-{[1-(3-Chlorophenyl)-5-(3-fluoro-5-methoxyphenyl)-1H-pyrazol-3-yl]carbonyl}imidazolidin-4-one] | 1 | 59 | 3 | 38 | –
6 | COc1cc(F)cc(-c2cc(C(=O)N3CNC(=O)C3)nn2-c2ccc(F)c(Cl)c2)c1 [Example 22, 1-{[1-(3-Chloro-4-fluorophenyl)-5-(3-fluoro-5-methoxyphenyl)-1H-pyrazol-3-yl]carbonyl}imidazolidin-4-one] | 0.3 | 131 | 2 | 10 | –
7 | N#Cc1cccc(-c2cc(C(=O)N3CNC(=O)C3)nn2-c2ccc(F)c(Cl)c2)c1 [Example 25] | 0.6 | 99 | 2 | 30 | –
8 | O=C1CN(C(=O)c2cc(-c3cccc(F)c3)n(-c3ccc(F)c(Cl)c3)n2)CN1 [Example 26, 1-{[1-(3-Chloro-4-fluorophenyl)-5-(3-fluorophenyl)-1H-pyrazol-3-yl]carbonyl}imidazolidin-4-one] | 2 | 104 | 11 | 65 | –
9 | O=C1CN(C(=O)c2cc(-c3cc(F)cc(C(F)(F)F)c3)n(-c3cccc(Cl)c3)n2)CN1 [Example 30, 1-({1-(3-Chlorophenyl)-5-[3-fluoro-5-(trifluoromethyl)phenyl]-1H-pyrazol-3-yl}carbonyl)imidazolidin-4-one] | 3 | 297 | 8 | 16 | –
10 | O=C1CN(C(=O)c2cc(-c3cccc(Cl)c3)n(-c3cccc(Br)c3)n2)CN1 [Example 32, 1-{[1-(3-Bromophenyl)-5-(3-chlorophenyl)-1H-pyrazol-3-yl]carbonyl}imidazolidin-4-one] | 0.1 | 65 | 0.7 | 25 | –
11 | O=C1CN(C(=O)c2cc(-c3ccc(F)c(Cl)c3)n(-c3cccc(Br)c3)n2)CN1 [Example 33, 1-{[1-(3-Bromophenyl)-5-(3-chloro-4-fluorophenyl)-1H-pyrazol-3-yl]carbonyl}imidazolidin-4-one] | 0.07 | 8 | 0.5 | 3 | –
12 | O=C1CN(C(=O)c2cc(-c3cc(F)cc(OCCO)c3)n(-c3ccc(F)c(Cl)c3)n2)CN1 [Example 36] | 0.6 | – | 3 | 45 | 52
13 | O=C1CN(C(=O)c2cc(-c3cccc(OCCCN4CCOCC4)c3)n(-c3cccc(Cl)c3)n2)CN1 [Example 37, 1-({1-(3-Chlorophenyl)-5-[3-(3-morpholin-1-ylpropoxy)phenyl]-1H-pyrazol-3-yl}carbonyl)imidazolidin-4-one] | 18 | 175 | 33 | 2000 | –
14 | COc1cccc(-c2cc(C(=O)N3CNC(=O)C3)nn2-c2ccc(F)c(Cl)c2)c1 [Example 38, 1-{[1-(3-Chloro-4-fluorophenyl)-5-(3-methoxyphenyl)-1H-pyrazol-3-yl]carbonyl}imidazolidin-4-one] | 9 | 365 | 120 | 80 | –
15 | Cc1cc(F)cc(-c2cc(C(=O)N3CNC(=O)C3)nn2-c2cccc(Cl)c2)c1 [Example 51, 1-{[1-(3-Chlorophenyl)-5-(3-fluoro-5-methylphenyl)-1H-pyrazol-3-yl]carbonyl}imidazolidin-4-one] | 0.4 | 60 | 1 | 15 | –
16 | N#Cc1cccc(-n2nc(C(=O)N3CNC(=O)C3)cc2-c2ccc(F)c(Cl)c2)c1 [Example 52, 1-{[5-(3-Chloro-4-fluorophenyl)-1-(3-Cyanophenyl)-1H-pyrazol-3-yl]carbonyl}imidazolidin-4-one] | 0.1 | 38 | 2 | 17 | –
17 | N#Cc1cc(-n2nc(C(=O)N3CNC(=O)C3)cc2-c2cccc(Cl)c2)ccc1F [Example 53, 1-{[5-(3-Chlorophenyl)-1-(3-Cyano-4-fluorophenyl)-1H-pyrazol-3-yl]carbonyl}imidazolidin-4-one] | 0.3 | 46 | 1 | 33 | –
18 | N#Cc1cccc(-n2nc(C(=O)N3CNC(=O)C3)cc2-c2cccc(Cl)c2)c1 [Example 56, 3-{5-(3-Chlorophenyl)-3-[(4-oxoimidazolidin-1-yl)carbonyl]-1H-pyrazol-1-yl}benzenecarbonitrile] | 0.03 | 14 | 0.1 | 12 | –
